Experimental data: patent US20260258378A1, “GLYCOSYLTRANSFERASE ENGINEERING FOR CHEMOENZYMATIC TOTAL SYNTHESIS OF GANGLIOSIDES” (priority 2022, published 2026)

Columns and labels:
Assay type in all cases: biochemical, Campylobacter jejuni
MBP-CjCgtBΔ30-His6 [1] = experiment: Effects of divalent metal cations, EDTA and DTT on enzyme activity; settings: pH 7.5, Tris-HCl buffer (100 mM); DTT 10 mM
Procedure: (§1) The enzymatic assays were carried out in duplicate at 37° C. for 10 minutes in a reaction mixture (10 μL) containing the donor substrate (1.5 mM, UDP-GalNAc for MBP-Δ15CjCgtA-His6 and UDP-Gal for MBP-CjCgtBΔ30-His6), an acceptor substrate (1 mM, GM3βNHCbz for MBP-Δ15CjCgtA-His6 and GM2βNHCbz for MBP-CjCgtBΔ30-His6), Tris-HCl buffer (100 mM, pH 7.5), a metal cation (10 mM, MgCl2 for MBP-Δ15CjCgtA-His6 and MnCl2 for MBP-CjCgtBΔ30-His6), and the enzyme (0.32 μM for MBP-Δ15CjCgtA-His6 and 4 μM for MBP-CjCgtBΔ30-His6). The reactions were stopped by adding 10 μL of ice-cold methanol followed by incubation of the mixture on ice for 20 minutes and centrifugation at 16200 g for 5 minutes. The supernatant (about 20 μL) was transferred into another tube containing ddH2O (40 μL) and the resulting mixture was analyzed by liquid chromatography-mass spectrometry (LC-MS) (SHIMADZU LCMS-2020 system with electrospray ionization) for confirming the product and ultra-high-performance liquid chromatography (UHPLC) (monitored at 215 nm on an Agilent Infinity 1290 II HPLC system equipped with 1260 Infinity II Diode Array Detector WR) for reaction yield determination. The column used for the UHPLC analysis was Dionex™ CarboPac™ PA-100 (1.8 μm particle, 4×250 mm, Thermo Scientific, CA) for both glycosyltransferases. A gradient flow (100% water to 70% water/30% 1 M NaCl in 16 min) was used for analyzing the reactions catalyzed by MBP-Δ15CjCgtA-His6 and a different gradient flow (100% water to 75% water/[…] in 16 min) was used for analyzing MBP-CjCgtBΔ30-His6-catalyzed reactions. The flow rate was 0.75 mL min^−1.
(§2) The effect of various metal ions, the chelating reagent EDTA, and the reducing reagent DTT on the enzyme activity of MBP-Δ15CjCgtA-His6 and MBP-CjCgtBΔ30-His6 were examined at pH 7.5 in a Tris-HCl buffer (100 mM). Reactions without metal ions were used as controls.

MBP-Δ15CjCgtA-His6 [2] = experiment: as above; settings: pH 7.5, Tris-HCl buffer (100 mM); DTT 10 mM
Procedure: as §1, §2

MBP-CjCgtBΔ30-His6 [3] = experiment: Effects of detergents on MBP-CjCgtBΔ30-His6 with glycosphingosine acceptor substrates; settings: HRMS, sodium cholate 8-10 mM, Triton X-100 10 mM
Procedure: (§3) Glycosphingosines are much weaker acceptor substrates than the corresponding glycans for both CjCgtA and CjCgtB. This property made it prohibitive for synthesizing GM2βSph and GM1βSph in large-scales using the OPME strategy. […] The effects of these detergents in influencing the activities of both MBP-Δ15CjCgtA-His6 and MBP-CjCgtBΔ30-His6 in using glycosphingosine acceptor substrates and the reactions were analyzed by high-resolution mass spectrometry (HRMS).

MBP-Δ15CjCgtA-His6 [4] = experiment: Effects of detergents on MBP-Δ15CjCgtA-His6-catalyzed OPME formation of GM2βSph; settings: glycosphingosine acceptor, HRMS; sodium cholate 8-10 mM; Triton X-100 10 mM
Procedure: Assays were carried out at 30° C. for 12 hours in a total volume of 10 μL in Tris-HCl buffer (100 mM, pH 7.5) containing a GM3βSph (10 mM), GalNAc (15 mM), ATP (15 mM), UTP (15 mM), MgCl2 (20 mM), BLNahK (2 μg), PmGlmU (2 μg), MBP-Δ15CjCgtA-His6 (3 μg), PmPpA (1 μg), and various concentrations (0, 1, 2, 4, 5, 8, 10, 15, 18 mM) of sodium cholate or Triton X-100 (1, 5, 10, 15 mM). Reactions were quenched by addition of 10 μL of pre-chilled ethanol and the mixtures were incubated at 0° C. for 30 min, centrifuged, and the supernatant were analyzed by high resolution mass spectrometry (HRMS).
as §3

Compound	effect on the enzyme activity of MBP-CjCgtBΔ30-His6 (MBP-CjCgtBΔ30-His6 [1])	effect on the enzyme activity of MBP-Δ15CjCgtA-His6 (MBP-Δ15CjCgtA-His6 [2])	effect of detergent on reaction yield / enzyme activity (MBP-CjCgtBΔ30-His6 [3])	effect of detergent on reaction yield / enzyme activity (MBP-Δ15CjCgtA-His6 [4])
O[C@H](CS)[C@H](O)CS (racemic) [dithiothreitol]	improved the activity	deactivated	–	–
[Ca+2] [Ca^2+]	not	suitable	–	–
[Mg+2] [Mg^2+]	less effective	equally effective	–	–
[Mn+2] [Mn^2+]	preferred cation	–	–	–
C[C@H](CCC(=O)[O-])[C@H]1CC[C@H]2[C@@H]3[C@H](O)C[C@@H]4C[C@H](O)CC[C@]4(C)[C@H]3C[C@H](O)[C@]12C.[Na+] [sodium cholate]	–	–	greatly enhanced	greatly enhanced
Triton X-100	–	–	improved	improved
